# *1 amine or outer side, *2 acyl side, *3 side chain or, on linkers, in order; H or OH if unused. Where a SMILES comes first, the peptide text is derived from it. Bridges are numbered along the chain shown (N, C = ends). [ ]: non-standard residue; d: D form. The star is where a group is joined. X2 = O=C(O)CN1CCN(CC(=O)O)CCN(CC(=O)N[C@@H](CCC(=O)NC[C@H](O)[C@@H](O)[C@H](O)[C@H](O)CO)C(=O)*)CCN(CC(=O)O)CC1; X5 = NC(=O)[C@H](CCCCNC(=O)CN1CCN(CC(=O)O)CCN(CC(=O)O)CCN(CC(=O)O)CC1)NC(=O)CCC(=O)NCCCOCCOCCOCCCN*; X13 = O=C(CN1CCN2CCN3CCN(CC1)CC(=O)[O][Lu]([O]C(=O)C2)[O]C(=O)C3)NCCCOCCOCCOCCCN*; X3 = O=C(O)CN1CCN(CC(=O)O)CCN(CC(=O)NCCCOCCOCCOCCCN*)CCN(CC(=O)O)CC1; NH(1-deoxy-D-glucityl) = OC[C@@H](O)[C@@H](O)[C@H](O)[C@@H](O)CN*; X26 = O=C(O)CN1CCN2CCN(CCN(CC(=O)*)CC1)CC(=O)[O][Zn][O]C(=O)C2; DOTA = O=C(O)CN1CCN(CC(=O)O)CCN(CC(=O)*)CCN(CC(=O)O)CC1; Trp(5-Cl) = N[C@@H](Cc1c[nH]c2ccc(Cl)cc12)C(=O)O; Pyridine(2,6-diCH2) = c1cc(C[*:1])nc(C[*:2])c1; Trp(5-F) = N[C@@H](Cc1c[nH]c2ccc(F)cc12)C(=O)O; Phe(2-Cl) = N[C@@H](Cc1ccccc1Cl)C(=O)O; Pro(4R-NH2) = N[C@H]1CN[C@H](C(=O)O)C1; 1Nal = N[C@@H](Cc1cccc2ccccc12)C(=O)O; mXylylene = c1cc(C[*:1])cc(C[*:2])c1; Glutaryl = O=C(CCCC(=O)[*:2])[*:1]; X6 = c1cc(CSCCN[*:2])nc(C[*:1])c1; X7 = c1cc(CSCCN[*:2])cc(C[*:1])c1; Hyp = O=C(O)[C@@H]1C[C@@H](O)CN1; X1 = O=C(CN1CCC(N[*:1])CC1)[*:2]; NMeD = CN[C@@H](CC(=O)O)C(=O)O; Suc = O=C(CCC(=O)[*:2])[*:1]; αMeS = C[C@](N)(CO)C(=O)O; Api = NC1(C(=O)O)CCNCC1; Thp = NC1(C(=O)O)CCOCC1; Deg = CCC(N)(CC)C(=O)O; Aib = CC(C)(N)C(=O)O
# Target: T1, GIPR (CHO-K1-hGIPR cells) (Homo sapiens, UniProt P48546)
# T1 construct: host or cells: CHO-K1
# T1 sequence (P48546 22-466): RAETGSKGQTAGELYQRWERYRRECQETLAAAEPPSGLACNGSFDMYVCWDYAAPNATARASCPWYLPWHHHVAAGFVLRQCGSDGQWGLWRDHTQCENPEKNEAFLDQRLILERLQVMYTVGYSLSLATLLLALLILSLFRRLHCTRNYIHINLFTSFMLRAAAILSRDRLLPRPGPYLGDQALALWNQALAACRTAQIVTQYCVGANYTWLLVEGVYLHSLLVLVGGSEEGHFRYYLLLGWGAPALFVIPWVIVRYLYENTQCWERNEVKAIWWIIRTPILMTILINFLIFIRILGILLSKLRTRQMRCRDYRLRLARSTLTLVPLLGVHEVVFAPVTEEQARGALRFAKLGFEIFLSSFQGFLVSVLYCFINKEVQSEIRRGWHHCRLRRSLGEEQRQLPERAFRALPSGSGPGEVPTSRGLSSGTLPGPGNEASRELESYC
# Assay: FACS binding assay
# Conditions: competition with 20 nM GIP-057, 4° C. for 1 hour, read-out: pIC50 Category (converted)
# Summary of the method: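 Median fluorescence in the APC channel, measured on washed CHO-K1 cells overexpressing human GIPR, was fitted by four-parameter logistic regression against peptide concentration to yield EC50 or IC50 values. Secondary labelling used APC-streptavidin (1 μg/mL, 30 min, ice).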
row,Compound,IC50 [nM]
1,"CC[C@H](C)[C@@H]1NC(=O)[C@H](CC(C)C)NC(=O)C2(CCOCC2)NC(=O)[C@@H](NC(=O)[C@@H](CC(C)C)NC(=O)[C@@H](NC(=O)[C@@H]2C[C@@H](O)CN2C(=O)[C@H](Cc2c[nH]c3ccc(Cl)cc23)NC(=O)[C@H](Cc2c[nH]c3ccccc23)NC(=O)[C@H](CC(=O)O)NC(C)=O)C(C)C)CSCc2cccc(n2)CSC[C@@H](C(N)=O)NC1=O [GIP-385, Ac-Asp-Trp-5Clw-Hyp-Val-leu-[Cys(2Lut)-Thp-Leu-Ile-Cys]-NH2] (Ac-DW[Trp(5-Cl)][Hyp]V[dL]C[Thp]LIC-NH2; linker 7-11 via Pyridine(2,6-diCH2))",< 10
2,"CC[C@H](C)[C@@H]1NC(=O)[C@H](CC(C)C)NC(=O)[C@H](C)NC(=O)[C@@H](NC(=O)[C@H](CC(C)C)NC(=O)[C@H](CCC(=O)O)NC(=O)[C@@H]2CCCN2C(=O)[C@H](Cc2c[nH]c3ccccc23)NC(=O)[C@H](Cc2c[nH]c3ccccc23)NC(=O)CCC(=O)O)CSCc2cccc(c2)CSCCNC1=O [GIP-256, HO-Succinyl-Trp-Trp-Pro-Glu-Leu-[Cys(3MeBn)-Ala-Leu-Ile-AET]] (Suc-WWPELCALI; linker 6-C via X7)",10 to 79.4
3,"CC[C@H](C)[C@@H]1NC(=O)[C@H](CC(C)C)NC(=O)C2(CCOCC2)NC(=O)[C@@H](NC(=O)[C@@H](CC(C)C)NC(=O)[C@H](CCC(=O)O)NC(=O)[C@@H]2C[C@@H](O)CN2C(=O)[C@H](Cc2c[nH]c3ccc(Cl)cc23)NC(=O)[C@H](Cc2c[nH]c3ccc(F)cc23)NC(=O)[C@H](CC(=O)O)NC(C)=O)CSCc2cccc(n2)CSC[C@@H](C(N)=O)NC1=O [GIP-382, Ac-Asp-5Fw-5Clw-Hyp-Glu-leu-[Cys(2Lut)-Thp-Leu-Ile-Cys]-NH2] (Ac-D[Trp(5-F)][Trp(5-Cl)][Hyp]E[dL]C[Thp]LIC-NH2; linker 7-11 via Pyridine(2,6-diCH2))",< 10
4,"CC[C@H](C)[C@@H]1NC(=O)[C@H](CC(C)C)NC(=O)C2(CCOCC2)NC(=O)[C@@H](NC(=O)[C@@H](CC(C)C)NC(=O)[C@H](CCC(=O)O)NC(=O)[C@@H]2C[C@@H](O)CN2C(=O)[C@H](Cc2c[nH]c3ccc(Cl)cc23)NC(=O)[C@H](Cc2ccccc2Cl)NC(=O)[C@H](CC(=O)O)NC(C)=O)CSCc2cccc(n2)CSC[C@@H](C(N)=O)NC1=O [GIP-262, Ac-Asp-Ocf-5Clw-Hyp-Glu-leu-[Cys(2Lut)-Thp-Leu-Ile-Cys]-NH2] (Ac-D[Phe(2-Cl)][Trp(5-Cl)][Hyp]E[dL]C[Thp]LIC-NH2; linker 7-11 via Pyridine(2,6-diCH2))",10 to 79.4

# Same assay, conditions: competition with 20 nM GIP-057, 4° C., 1 hour, read-out: pIC50 Category (converted)
row,Compound,IC50 [nM]
1,"CC[C@H](C)[C@@H]1NC(=O)[C@H](CC(C)C)NC(=O)C2(CCN(C(=O)CN3CCN(CC(=O)O)CCN(CC(=O)O)CCN(CC(=O)O)CC3)CC2)NC(=O)[C@@H](NC(=O)[C@@H](CC(C)C)NC(=O)[C@H](CCC(=O)O)NC(=O)[C@@H]2C[C@@H](N)CN2C(=O)[C@H](Cc2c[nH]c3ccc(Cl)cc23)NC(=O)[C@H](Cc2c[nH]c3ccccc23)NC(=O)[C@H](CC(=O)O)NC(C)=O)CSCc2cccc(n2)CSC[C@@H](C(N)=O)NC1=O [GIP-123, Ac-Asp-Trp-5Clw-Tap-Glu-leu-[Cys(2Lut)-Apc(DOTA)-Leu-Ile-Cys]-NH2] (Ac-DW[Trp(5-Cl)][Pro(4R-NH2)]E[dL]C[Api](DOTA)LIC-NH2; linker 7-11 via Pyridine(2,6-diCH2))",< 10
2,"CC[C@H](C)[C@@H]1NC(=O)[C@H](CC(C)C)NC(=O)C2(CCN(C(=O)CN3CCN(CC(=O)O)CCN4CCN(CC3)CC(=O)[O][Zn][O]C(=O)C4)CC2)NC(=O)[C@@H](NC(=O)[C@@H](CC(C)C)NC(=O)[C@H](CCC(=O)O)NC(=O)[C@@H]2C[C@@H](O)CN2C(=O)[C@H](Cc2c[nH]c3ccc(Cl)cc23)NC(=O)[C@H](Cc2c[nH]c3ccccc23)NC(=O)[C@H](CC(=O)O)NC(=O)CCCC(=O)NC[C@H](O)[C@@H](O)[C@H](O)[C@H](O)CO)CSCc2cccc(n2)CSCCNC1=O [GIP-147, AGLU-Glutar-Asp-Trp-5Clw-Hyp-Glu-leu-[Cys(2Lut)-Apc(ZnDOTA)-Leu-Ile-AET]] ({NH(1-deoxy-D-glucityl)-Glutaryl}-DW[Trp(5-Cl)][Hyp]E[dL]C[Api](X26)LI; linker 7-C via X6)",< 10
3,"CC[C@H](C)[C@@H]1NC(=O)[C@H](CC(C)C)NC(=O)C2(CCN(C(=O)[C@H](CCC(=O)NC[C@H](O)[C@@H](O)[C@H](O)[C@H](O)CO)NC(=O)CN3CCN(CC(=O)O)CCN(CC(=O)O)CCN(CC(=O)O)CC3)CC2)NC(=O)[C@@H](NC(=O)[C@@H](CC(C)C)NC(=O)[C@H](CCC(=O)O)NC(=O)[C@@H]2C[C@@H](O)CN2C(=O)[C@H](Cc2c[nH]c3ccc(Cl)cc23)NC(=O)[C@H](Cc2c[nH]c3ccccc23)NC(=O)[C@H](CC(=O)O)NC(=O)CN2CCC(NC(=O)CCCC(=O)NC[C@H](O)[C@@H](O)[C@H](O)[C@H](O)CO)CC2)CSCc2cccc(n2)CSC[C@@H](C(=O)NC2CCN(CC(=O)N[C@H](CCC(=O)NC[C@H](O)[C@@H](O)[C@H](O)[C@H](O)CO)C(N)=O)CC2)NC1=O [GIP-043, AGLU-Glutar-APAc-Asp-Trp-5Clw-Hyp-Glu-leu-[Cys(2Lut)-Apc(DOTA-glu(AGLU))-Leu-Ile-Cys]-APAc-glu(AGLU)-NH2] ({NH(1-deoxy-D-glucityl)-Glutaryl}-[X1]DW[Trp(5-Cl)][Hyp]E[dL]C[Api](X2)LIC[X1][dE](NH(1-deoxy-D-glucityl))-NH2; linker 8-12 via Pyridine(2,6-diCH2))",< 10
4,"CC[C@H](C)[C@@H]1NC(=O)[C@H](CC(C)C)NC(=O)C(CC)(CC)NC(=O)[C@@H](NC(=O)[C@@H](CC(C)C)NC(=O)[C@H](CCC(=O)O)NC(=O)[C@@H]2CCCN2C(=O)[C@H](Cc2cccc3ccccc23)NC(=O)[C@H](Cc2c[nH]c3ccccc23)NC(=O)[C@H](CC(=O)O)NC(C)=O)CSCc2cccc(c2)CSC[C@@H](C(=O)NCCCOCCOCCOCCCNC(=O)CCC(=O)N[C@@H](CCCCNC(=O)CN2CCN(CC(=O)O)CCN(CC(=O)O)CCN(CC(=O)O)CC2)C(N)=O)NC1=O [GIP-139, Ac-Asp-Trp-1Ni-Pro-Glu-leu-[Cys(3MeBn)-Deg-Leu-Ile-Cys]-Ttds-Lys(DOTA)-NH2] (Ac-DW[1Nal]PE[dL]C[Deg]LIC-X5; linker 7-11 via mXylylene)",10 to 79.4
5,"CC[C@H](C)[C@@H]1NC(=O)[C@H](CC(C)C)NC(=O)C(C)(C)NC(=O)[C@@H](NC(=O)[C@H](CC(C)C)NC(=O)[C@H](CCC(=O)O)NC(=O)[C@@H]2CCCN2C(=O)[C@H](Cc2c[nH]c3ccccc23)NC(=O)[C@H](Cc2c[nH]c3ccccc23)NC(=O)[C@H](CC(=O)O)N(C)C(=O)CCC(=O)NCCCOCCOCCOCCCNC(=O)CN2CCN(CC(=O)O)CCN(CC(=O)O)CCN(CC(=O)O)CC2)CSCc2cccc(c2)CSCCNC1=O [GIP-130, DOTA-Ttds-Nmd-Trp-Trp-Pro-Glu-Leu-[Cys(3MeBn)-Aib-Leu-Ile-AET]] ({X3-Suc}-[NMeD]WWPELC[Aib]LI; linker 7-C via X7)",10 to 79.4

# Same assay, conditions: pIC50 Category, competition with 20 nM GIP-057, 4° C., 1 hour
row,Compound,IC50 [nM]
1,"CC[C@H](C)[C@@H]1NC(=O)[C@H](CC(C)C)NC(=O)[C@](C)(CO)NC(=O)[C@@H](NC(=O)[C@@H](CC(C)C)NC(=O)[C@H](CCC(=O)O)NC(=O)[C@@H]2CCCN2C(=O)[C@H](Cc2c[nH]c3ccc(Cl)cc23)NC(=O)[C@H](Cc2c[nH]c3ccccc23)NC(=O)[C@H](CC(=O)O)NC(=O)CCC(=O)NCCCOCCOCCOCCCNC(=O)CN2CCN3CCN4CCN(CC2)CC(=O)[O][Lu]([O]C(=O)C3)[O]C(=O)C4)CSCc2cccc(c2)CSCCNC1=O [GIP-157, LuDOTA-Ttds-Asp-Trp-5Clw-Pro-Glu-leu-[Cys(3MeBn)-Ams-Leu-Ile-AET]] ({X13-Suc}-DW[Trp(5-Cl)]PE[dL]C[αMeS]LI; linker 7-C via X7)",< 10
